The source of these data is paper PMC7531004, “Discovery of gramicidin A analogues with altered activities by multidimensional screening of a one-bead-one-compound library” (Nature Communications, 2020).

Data set [1] can be described thus: H+/Na+ transport assay of bead-derived peptides (one-point).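 Also: relative to parent gramicidin A activity set to 1.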 In kind it is biochemical. To be noted: bead-derived peptide solution, EYPC/EYPG LUVs. On the set-up: key: relative activity; mean of two control wells = 1.00. The essentials: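 One-point screen: peptide + pyranine-loaded LUVs, 30 min RT with vortexing, 96-well. Read-out is fluorescence intensity scaled as 100 × (Ix – I0)/(Imax – I0). Imax from Triton X-100, I0 from untreated vesicles, and the mean of the two control wells is set to 1.00.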

The conditions of data set [2]: cell viability/%. The essentials: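 First, library peptide stocks are diluted 250-fold in RPMI1640 with 10% heat-inactivated FBS. Next, they are mixed with P388 cells to give 1 × 10^4 cells/mL and incubated 92 h at 37 °C, 5% CO2. Finally, viability (%) is scored by WST-1 absorbance at 415 nm.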
Data set [3] has as its system Streptococcus pyogenes SSI-9. Put plainly: Antibacterial activity assay of bead-derived peptides (three concentrations). To be noted: S. pyogenes, bead-derived peptide solution, three concentrations. In kind it is cell-based. On the set-up: key: +++: inhibition by the 640-fold diluted peptide solution; ++: inhibition by the 160-fold diluted solution; +: inhibition by the 40-fold diluted solution; -: no inhibition. The procedure, abridged: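 Bead-derived library peptide stocks in DMSO were tested undiluted and after 4- and 16-fold DMSO dilution against S. pyogenes SSI-9 (2 × 10^5 CFU/well) in cation-adjusted Mueller Hinton Broth with 5% laked horse blood. After 18 h at 37 °C, wells were scored for precipitation of grown cells.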

As a reminder, the viability is a per cent measure of how many cells are alive, often set against a control.

Each structure is given as a SMILES string. Where a SMILES comes first, the peptide text is derived from it. [ ]: non-standard residue; d: D form. The star is where a group is joined. NHCH2CH2OH = OCCN*; For = O=C*

Take `CC(C)C[C@@H](NC(=O)[C@H](C)NC(=O)CNC(=O)[C@@H](NC=O)C(C)C)C(=O)N[C@@H](C)C(=O)N[C@H](CC(C)C)C(=O)N[C@H](C(=O)N[C@@H](C(=O)N[C@@H](Cc1c[nH]c2ccccc12)C(=O)N[C@@H](C(=O)N[C@@H](Cc1c[nH]c2ccccc12)C(=O)N[C@@H](C(=O)N[C@@H](Cc1c[nH]c2ccccc12)C(=O)N[C@H](CC(C)C)C(=O)N[C@@H](Cc1c[nH]c2ccccc12)C(=O)NCCO)C(C)C)C(C)C)C(C)C)C(C)C` [compound 905] (For-VGA[dL]A[dL]V[dV]W[dV]W[dV]W[dL]W-NHCH2CH2OH): the “H+/Na+ transport activity normalized against the value of 1 (1.00)” value (from here on “H+/Na+ transport activity normalized”) in data set [1] is on record as 1.19. Moreover, the viability in data set [2] worked out at 90.6%. In addition, the antibacterial activity entry in data set [3] is listed as “+”.
The like results for `CC(C)C[C@@H](NC(=O)[C@H](Cc1c[nH]c2ccccc12)NC(=O)[C@@H](CC(C)C)NC(=O)[C@H](Cc1c[nH]c2ccccc12)NC(=O)[C@H](NC(=O)[C@H](Cc1c[nH]c2ccccc12)NC(=O)[C@H](NC(=O)[C@@H](NC(=O)[C@H](NC(=O)[C@H](C)NC(=O)[C@H](NC(=O)[C@H](C)NC(=O)CNC(=O)[C@@H](NC=O)C(C)C)C(C)C)C(C)C)C(C)C)C(C)C)C(C)C)C(=O)N[C@@H](Cc1c[nH]c2ccccc12)C(=O)NCCO` [compound 1119] (For-VGA[dV]A[dV]V[dV]W[dV]W[dL]W[dL]W-NHCH2CH2OH) were, in that order, 1.10, 100% and “-”.
For the compound `CNC(=O)C[C@@H](NC(=O)[C@H](Cc1c[nH]c2ccccc12)NC(=O)[C@@H](CC(C)C)NC(=O)[C@@H](NC(=O)[C@@H](CC(C)C)NC(=O)[C@H](C)NC(=O)[C@H](NC(=O)[C@H](C)NC(=O)CNC(=O)[C@@H](NC=O)C(C)C)C(C)C)C(C)C)C(=O)N[C@@H](Cc1c[nH]c2ccccc12)C(=O)N[C@@H](C(=O)N[C@@H](Cc1c[nH]c2ccccc12)C(=O)N[C@@H](C(=O)N[C@@H](Cc1c[nH]c2ccccc12)C(=O)NCCO)C(C)C)C(C)C` [compound 1152] (For-VGA[dV]A[dL]V[dL]W[dD](NHMe)W[dV]W[dV]W-NHCH2CH2OH), the “H+/Na+ transport activity normalized” value in data set [1] came out at 1.05. Further, the viability in data set [2] was determined as 100%. For the same compound, in data set [3], the antibacterial activity entry is “-”.
The like results for `CC(C)C[C@@H](NC(=O)[C@@H](NC(=O)[C@H](NC(=O)[C@H](C)NC(=O)[C@H](NC(=O)[C@H](C)NC(=O)CNC(=O)[C@@H](NC=O)C(C)C)[C@H](C)O)C(C)C)C(C)C)C(=O)N[C@@H](Cc1c[nH]c2ccccc12)C(=O)N[C@@H](C(=O)N[C@@H](Cc1c[nH]c2ccccc12)C(=O)N[C@@H](C(=O)N[C@@H](Cc1c[nH]c2ccccc12)C(=O)N[C@@H](C(=O)N[C@@H](Cc1c[nH]c2ccccc12)C(=O)NCCO)C(C)C)C(C)C)[C@H](C)O` [compound 1156] (For-VGA[dT]A[dV]V[dL]W[dT]W[dV]W[dV]W-NHCH2CH2OH) were, in that order, 1.03, 85.9% and “-”.
Regarding `CC(C)C[C@@H](NC(=O)[C@H](C)NC(=O)CNC(=O)[C@@H](NC=O)C(C)C)C(=O)N[C@@H](C)C(=O)N[C@H](CC(C)C)C(=O)N[C@H](C(=O)N[C@@H](C(=O)N[C@@H](Cc1c[nH]c2ccccc12)C(=O)N[C@H](CC(C)C)C(=O)N[C@@H](Cc1c[nH]c2ccccc12)C(=O)N[C@@H](C(=O)N[C@@H](Cc1c[nH]c2ccccc12)C(=O)N[C@H](CC(C)C)C(=O)N[C@@H](Cc1c[nH]c2ccccc12)C(=O)NCCO)[C@H](C)O)[C@H](C)O)C(C)C` [compound 1176] (For-VGA[dL]A[dL]V[dT]W[dL]W[dT]W[dL]W-NHCH2CH2OH), in data set [1], the “H+/Na+ transport activity normalized” value is given as 1.01. For the same compound, in data set [2], the viability was 100%. The antibacterial activity entry in data set [3] is “-”.
Take `CNC(=O)C[C@@H](NC(=O)[C@@H](NC(=O)[C@@H](CC(C)C)NC(=O)[C@H](C)NC(=O)[C@H](NC(=O)[C@H](C)NC(=O)CNC(=O)[C@@H](NC=O)C(C)C)C(C)C)C(C)C)C(=O)N[C@@H](Cc1c[nH]c2ccccc12)C(=O)N[C@H](CC(C)C)C(=O)N[C@@H](Cc1c[nH]c2ccccc12)C(=O)N[C@H](CC(C)C)C(=O)N[C@@H](Cc1c[nH]c2ccccc12)C(=O)N[C@H](CC(C)C)C(=O)N[C@@H](Cc1c[nH]c2ccccc12)C(=O)NCCO` [compound 1242] (For-VGA[dV]A[dL]V[dD](NHMe)W[dL]W[dL]W[dL]W-NHCH2CH2OH): the “H+/Na+ transport activity normalized” value in data set [1] was 1.13. This compound returned a viability in data set [2] of 65.8%. The antibacterial activity entry in data set [3] is “-”.
In the case of `CC(C)C[C@@H](NC(=O)[C@H](C)NC(=O)CNC(=O)[C@@H](NC=O)C(C)C)C(=O)N[C@@H](C)C(=O)N[C@@H](C(=O)N[C@H](C(=O)N[C@H](CC(C)C)C(=O)N[C@@H](Cc1c[nH]c2ccccc12)C(=O)N[C@@H](C(=O)N[C@@H](Cc1c[nH]c2ccccc12)C(=O)N[C@H](CC(C)C)C(=O)N[C@@H](Cc1c[nH]c2ccccc12)C(=O)N[C@@H](C(=O)N[C@@H](Cc1c[nH]c2ccccc12)C(=O)NCCO)C(C)C)[C@H](C)O)C(C)C)C(C)C` [compound 1253] (For-VGA[dL]A[dV]V[dL]W[dT]W[dL]W[dV]W-NHCH2CH2OH), the “H+/Na+ transport activity normalized” value in data set [1] was found to be 1.03. Further, in data set [2], the viability is 58.1%. In addition, in data set [3], the antibacterial activity entry is “-”.
On the same counts, the results for `CC(C)C[C@@H](NC(=O)[C@H](C)NC(=O)[C@H](NC(=O)[C@H](C)NC(=O)CNC(=O)[C@@H](NC=O)C(C)C)C(C)C)C(=O)N[C@H](C(=O)N[C@@H](C(=O)N[C@@H](Cc1c[nH]c2ccccc12)C(=O)N[C@@H](C(=O)N[C@@H](Cc1c[nH]c2ccccc12)C(=O)N[C@H](CC(C)C)C(=O)N[C@@H](Cc1c[nH]c2ccccc12)C(=O)N[C@H](CC(C)C)C(=O)N[C@@H](Cc1c[nH]c2ccccc12)C(=O)NCCO)C(C)C)C(C)C)C(C)C` [compound 1406] (For-VGA[dV]A[dL]V[dV]W[dV]W[dL]W[dL]W-NHCH2CH2OH) are 1.04, 91.1% and “+”.
As for `CNC(=O)C[C@@H](NC(=O)[C@H](C)NC(=O)[C@H](NC(=O)[C@H](C)NC(=O)CNC(=O)[C@@H](NC=O)C(C)C)C(C)C)C(=O)N[C@H](C(=O)N[C@H](CC(C)C)C(=O)N[C@@H](Cc1c[nH]c2ccccc12)C(=O)N[C@H](CC(C)C)C(=O)N[C@@H](Cc1c[nH]c2ccccc12)C(=O)N[C@@H](C(=O)N[C@@H](Cc1c[nH]c2ccccc12)C(=O)N[C@H](CC(C)C)C(=O)N[C@@H](Cc1c[nH]c2ccccc12)C(=O)NCCO)C(C)C)C(C)C` [compound 1489] (For-VGA[dV]A[dD](NHMe)V[dL]W[dL]W[dV]W[dL]W-NHCH2CH2OH), the “H+/Na+ transport activity normalized” value in data set [1] was determined as 1.03. This compound had a viability in data set [2] of 100%. The antibacterial activity entry in data set [3] is listed as “-”.
For the compound `CC(C)C[C@@H](NC(=O)[C@H](Cc1c[nH]c2ccccc12)NC(=O)[C@H](NC(=O)[C@H](Cc1c[nH]c2ccccc12)NC(=O)[C@@H](CC(C)C)NC(=O)[C@H](Cc1c[nH]c2ccccc12)NC(=O)[C@@H](CC(C)C)NC(=O)[C@@H](NC(=O)[C@H](NC(=O)[C@H](C)NC(=O)[C@H](NC(=O)[C@H](C)NC(=O)CNC(=O)[C@@H](NC=O)C(C)C)[C@H](C)O)C(C)C)C(C)C)C(C)C)C(=O)N[C@@H](Cc1c[nH]c2ccccc12)C(=O)NCCO` [compound 1509] (For-VGA[dT]A[dV]V[dL]W[dL]W[dV]W[dL]W-NHCH2CH2OH), in data set [1], the “H+/Na+ transport activity normalized” value was 1.10. This compound came in with a viability in data set [2] of 100%. In addition, the antibacterial activity result in data set [3] was “-”.
On to `CC(C)C[C@@H](NC(=O)[C@H](C)NC(=O)CNC(=O)[C@@H](NC=O)C(C)C)C(=O)N[C@@H](C)C(=O)N[C@@H](C(=O)N[C@H](C(=O)N[C@@H](C(=O)N[C@@H](Cc1c[nH]c2ccccc12)C(=O)N[C@@H](C(=O)N[C@@H](Cc1c[nH]c2ccccc12)C(=O)N[C@@H](C(=O)N[C@@H](Cc1c[nH]c2ccccc12)C(=O)N[C@@H](C(=O)N[C@@H](Cc1c[nH]c2ccccc12)C(=O)NCCO)C(C)C)C(C)C)C(C)C)[C@H](C)O)C(C)C)C(C)C` [compound 1520] (For-VGA[dL]A[dV]V[dT]W[dV]W[dV]W[dV]W-NHCH2CH2OH), for which the “H+/Na+ transport activity normalized” value in data set [1] is given as 1.04. In data set [2], this compound came in with a viability of 100%. Further, the antibacterial activity result in data set [3] is “-”.
For `CC(C)C[C@@H](NC(=O)[C@H](Cc1c[nH]c2ccccc12)NC(=O)[C@H](NC(=O)[C@@H](NC(=O)[C@H](NC(=O)[C@H](C)NC(=O)[C@H](NC(=O)[C@H](C)NC(=O)CNC(=O)[C@@H](NC=O)C(C)C)C(C)C)C(C)C)C(C)C)[C@H](C)O)C(=O)N[C@@H](Cc1c[nH]c2ccccc12)C(=O)N[C@H](CC(C)C)C(=O)N[C@@H](Cc1c[nH]c2ccccc12)C(=O)N[C@@H](C(=O)N[C@@H](Cc1c[nH]c2ccccc12)C(=O)NCCO)C(C)C` [compound 1523] (For-VGA[dV]A[dV]V[dT]W[dL]W[dL]W[dV]W-NHCH2CH2OH), in data set [1], the “H+/Na+ transport activity normalized” value amounted to 1.04. This compound showed a viability in data set [2] of 100%. In addition, the antibacterial activity entry in data set [3] was “+”.
